#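 GI50: concentration for 50% inhibition of growth. The concentration for full growth arrest is given as TGI.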
# Columns and labels:
# Test in all cases: inhibition of tumour cell growth, NCI panel, 384-well format
# [1] = tested on: HCC-2998 colon
# [2] = tested on: MOLT-4 leukemia
# [3] = tested on: PC-3 prostate
# [4] = tested on: OVCAR-4 ovarian
# [5] = tested on: CCRF-CEM leukemia
# [6] = tested on: MDA-MB-468 breast
# [7] = tested on: TK-10 renal
# [8] = tested on: HOP-62 NSCLC
# [9] = tested on: A549 NSCLC
# [10] = tested on: SF-295 CNS
# [11] = tested on: SK-OV-3 ovarian
# [12] = tested on: U251 glioblastoma
# [13] = tested on: UACC-257 melanoma
# [14] = tested on: OVCAR-8 ovarian
# [15] = tested on: BT-549 breast
# [16] = tested on: LOX IMVI melanoma
# [17] = tested on: HT29 colon
# [18] = tested on: CAKI-1 renal
# [19] = tested on: SK-MEL-5 melanoma
# [20] = tested on: SK-MEL-2 melanoma
# [21] = tested on: SN12C renal
# [22] = tested on: HOP-92 NSCLC
# [23] = tested on: SR leukemia
# [24] = tested on: RXF 393 renal
# [25] = tested on: MALME-3M melanoma
# [26] = tested on: NCI-H226 lung
# [27] = tested on: SK-MEL-28 melanoma
# [28] = tested on: MDA-MB-231 breast
# [29] = tested on: OVCAR-5 ovarian
# [30] = tested on: SNB-75 CNS
# [31] = tested on: MDA-MB-435 melanoma
# [32] = tested on: K-562 leukemia
# [33] = tested on: NCI-H23 lung
# [34] = tested on: HL-60(TB) leukemia
# [35] = tested on: NCI-H522 lung
# [36] = tested on: IGROV1 ovarian
# [37] = tested on: SF-268 CNS
# [38] = tested on: KM12 colon
# [39] = tested on: 786-0 renal
# [40] = tested on: UACC-62 melanoma
# [41] = tested on: HCT-15 colon
# [42] = tested on: SNB-19 CNS
# [43] = tested on: RPMI-8226 leukemia
# [44] = tested on: NCI-H322M lung
# [45] = tested on: NCI-H460 NSCLC
# [46] = tested on: A498 renal
# [47] = tested on: UO-31 renal
structure (smiles),measurement,setting,value
C[C@@H]1CN(CC(=O)N2CC(C)(C)c3nc(CO)c(Cc4ccc(F)cc4)cc32)[C@@H](CN2CCOC[C@H]2C)CN1,GI50,[1],15.8 µM
same,TGI,[1],29.8 µM
same,GI50,[2],18.5 µM
same,TGI,[2],35.6 µM
same,GI50,[3],65.2 µM
same,TGI,[3],> 100 µM
same,GI50,[4],0.015 µM
same,TGI,[4],0.112 µM
same,GI50,[5],16.1 µM
same,TGI,[5],42.7 µM
same,GI50,[6],0.483 µM
same,TGI,[6],14.8 µM
same,GI50,[7],27.9 µM
same,TGI,[7],52.9 µM
same,GI50,[8],17.9 µM
same,TGI,[8],> 61.2 µM
same,GI50,[9],> 69.2 µM
same,TGI,[9],> 100 µM
same,GI50,[10],42 µM
same,TGI,[10],> 81.4 µM
same,GI50,[11],< 0.0207 µM
same,TGI,[11],4.32 µM
same,GI50,[12],28.1 µM
same,TGI,[12],62.4 µM
same,GI50,[13],16.1 µM
same,TGI,[13],29.7 µM
same,GI50,[14],17.7 µM
same,TGI,[14],47.8 µM
same,GI50,[15],0.695 µM
same,TGI,[15],27.8 µM
same,GI50,[16],17.6 µM
same,TGI,[16],31.5 µM
same,GI50,[17],19.3 µM
same,TGI,[17],36.7 µM
same,GI50,[18],27.9 µM
same,TGI,[18],54 µM
same,GI50,[19],1.41 µM
same,TGI,[19],20.2 µM
same,TGI,[20],14.6 µM
same,GI50,[21],> 79 µM
same,TGI,[21],> 100 µM
same,GI50,[22],14.6 µM
same,TGI,[22],43.8 µM
same,GI50,[23],15.1 µM
same,TGI,[23],28.5 µM
same,GI50,[24],0.175 µM
same,TGI,[24],6.79 µM
same,GI50,[25],0.0411 µM
same,TGI,[25],2.61 µM
same,GI50,[26],40.4 µM
same,TGI,[26],> 82.3 µM
same,GI50,[27],14.1 µM
same,TGI,[27],33.3 µM
same,GI50,[28],0.103 µM
same,TGI,[28],2.39 µM
same,GI50,[29],38.7 µM
same,TGI,[29],99.8 µM
same,GI50,[30],16.3 µM
same,TGI,[30],41.6 µM
same,GI50,[31],47 µM
same,TGI,[31],> 100 µM
same,GI50,[32],16.8 µM
same,TGI,[32],30.9 µM
same,GI50,[33],24.8 µM
same,TGI,[33],99.2 µM
same,GI50,[34],4.54 µM
same,TGI,[34],18.9 µM
same,GI50,[35],14.2 µM
same,TGI,[35],32.4 µM
same,GI50,[36],61.4 µM
same,TGI,[36],> 100 µM
same,GI50,[37],38.6 µM
same,TGI,[37],> 74.7 µM
same,GI50,[38],28.2 µM
same,TGI,[38],63.8 µM
same,GI50,[39],20.4 µM
same,TGI,[39],42.2 µM
same,GI50,[40],27.9 µM
same,TGI,[40],> 69 µM
same,GI50,[41],27.7 µM
same,TGI,[41],> 83.3 µM
same,GI50,[42],99.7 µM
same,TGI,[42],> 100 µM
same,GI50,[43],23.1 µM
same,TGI,[43],38 µM
same,GI50,[44],33.5 µM
same,TGI,[44],> 73.1 µM
same,GI50,[45],26 µM
same,TGI,[45],56.1 µM
same,GI50,[46],21.5 µM
same,TGI,[46],53.2 µM
same,GI50,[47],39.6 µM
same,TGI,[47],> 100 µM

# Source: PubChem BioAssay (NCI)
